This is an account of results in PubChem BioAssay (NCI).

Some test systems named below: 786-0 renal; COLO 205 colon; HCT-15 colon; HS 578T breast; HT29 colon; K-562 leukemia; M14 melanoma; SK-OV-3 ovarian; SN12C renal; SNB-75 CNS.
Holding throughout (experiment): growth of human tumour cells (NCI), 48 h

“And” between values parts separate entries of the source, which are not always exact repeats. Equal entries are not always repeated.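 Protocol summary: plate cells (96-well), add compound at 5 concentrations, incubate 48 h, interpolate endpoints linearly. GI50 marks 50% less growth. TGI is the concentration that stops growth completely.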 A value given as a limit tells only on which side of the number the result lay.

Consider `CC(=O)OC1C(O)C(C)OC(OC2C(OC(=O)C3CCC4C(C3)OC3(CC(OC(=O)/C=C/c5ccccc5)C(C)CO3)C43CO3)OC(C)C(O)C2OC(C)=O)C1O` (stereo unspecified), for which the TGI in the assay with 786-0 renal was found to be 0.132 µM; in the assay on COLO 205 colon it was 0.0181 µM; in the assay with HCT-15 colon, 1.82 µM; with HS 578T breast, 0.00669 µM; in the assay on HT29 colon, 0.0473 µM; in the assay on K-562 leukemia, 0.241 µM. Besides, the TGI was 0.0293 µM in the assay with M14 melanoma, 0.0928 µM with SK-OV-3 ovarian, 0.125 µM in the assay with SN12C renal and 0.0317 µM in the assay on SNB-75 CNS.
As to `CCN1C(=O)/C(=c2\sc3n(c2=O)C2C(NN=3)N(CC)C(=O)N2CC)c2ccccc21` (stereo unspecified), the GI50 with 786-0 renal is 663 nM; with COLO 205 colon it was 468 nM; with HCT-15 colon it was 394 nM; with HS 578T breast, 341 nM; with HT29 colon, 369 nM; in the assay on K-562 leukemia, 362 nM. Further, the GI50 in the assay on M14 melanoma is 347 nM; in the assay with SK-OV-3 ovarian, 2120 nM; in the assay on SN12C renal it was 615 nM; with SNB-75 CNS it was 189 nM. Moreover, the TGI with 786-0 renal is 16.9 µM; in the assay with COLO 205 colon, 11.3 µM; in the assay on HCT-15 colon it was more than 100 µM; in the assay on HS 578T breast it was 31.6 µM; in the assay on HT29 colon, more than 100 µM; with K-562 leukemia, more than 100 µM. Moreover, the TGI in the assay with M14 melanoma was 21.7 µM; in the assay with SK-OV-3 ovarian, more than 55.7 µM; in the assay with SN12C renal it was more than 100 µM; in the assay on SNB-75 CNS, 0.856 µM.
As for `CC(=O)Oc1ccc(C2OC(c3ccc4ccccc4c3OC(C)=O)=NN2C(C)=O)c(OC(C)=O)c1` (stereo unspecified), the GI50 in the assay on 786-0 renal was 479 nM; in the assay with COLO 205 colon it was 377 nM; in the assay on HCT-15 colon, 294 nM; with HS 578T breast it was 12000 nM; with HT29 colon, 1620 nM; in the assay with K-562 leukemia, 402 nM. In addition, the GI50 with M14 melanoma was 368 nM; in the assay on SK-OV-3 ovarian, 675 nM; in the assay with SN12C renal it was 512 nM; with SNB-75 CNS, 1130 nM. The TGI is more than 77.2 µM with 786-0 renal; more than 32.3 µM with COLO 205 colon; more than 68 µM in the assay on HCT-15 colon; more than 100 µM in the assay with HS 578T breast; more than 52.8 µM in the assay on HT29 colon; more than 48.6 µM in the assay on K-562 leukemia. In addition, the TGI was more than 45.6 µM in the assay with M14 melanoma, more than 52.3 µM in the assay on SK-OV-3 ovarian, more than 70.6 µM with SN12C renal and more than 31.4 µM in the assay on SNB-75 CNS.
Consider `CC(C)c1cnc(-c2cc(Cl)ccc2F)cc1Nc1ccncc1C(=O)NC(CO)CO`, for which the GI50 in the assay on 786-0 renal was 14100 nM; in the assay with COLO 205 colon it was 14900 nM; in the assay on HCT-15 colon it was 12900 nM; in the assay on HS 578T breast it was 7310 nM; with HT29 colon, 14600 nM; in the assay with K-562 leukemia, 12300 nM. Moreover, the GI50 was 17800 nM in the assay with M14 melanoma, 19800 nM with SK-OV-3 ovarian, 8130 nM in the assay on SN12C renal and 51.5 nM in the assay on SNB-75 CNS. Further, the TGI in the assay on 786-0 renal worked out at 37.1 µM; in the assay with COLO 205 colon it was 33.9 µM; in the assay on HCT-15 colon, 26.9 µM; in the assay with HS 578T breast it was 30.6 µM; in the assay on HT29 colon, 33.7 µM; with K-562 leukemia it was 46.5 µM. For the same molecule, the TGI in the assay on M14 melanoma was determined as 39 µM; with SK-OV-3 ovarian it was 55.5 µM; in the assay with SN12C renal, 23.7 µM; in the assay with SNB-75 CNS, 25.9 µM.
As for `COc1ccc(-c2nc3sccn3c2-c2ccnc(NCCNS(=O)(=O)c3ccc(C(F)(F)F)cc3)n2)cc1`, the GI50 was 641 nM with 786-0 renal; 3290 nM with COLO 205 colon; 2590 nM with HCT-15 colon; 2350 nM in the assay on HS 578T breast; 2450 nM with HT29 colon; 411 nM in the assay on K-562 leukemia. In addition, the GI50 was 690 nM in the assay on M14 melanoma, 4440 nM with SK-OV-3 ovarian, 688 nM in the assay on SN12C renal and 1980 nM in the assay on SNB-75 CNS. The TGI in the assay on 786-0 renal is 11.3 µM; in the assay on COLO 205 colon it was more than 100 µM; in the assay with HCT-15 colon, more than 100 µM; in the assay with HS 578T breast, more than 100 µM; with HT29 colon, more than 100 µM; in the assay on K-562 leukemia it was more than 100 µM. The TGI with M14 melanoma was 3.25 µM; in the assay with SK-OV-3 ovarian, more than 100 µM; with SN12C renal, 8.38 µM; in the assay on SNB-75 CNS, 10.7 µM.
With `Nc1nc(N)c2cc(S(=O)(=O)c3ccc4ccccc4c3)ccc2n1`, the TGI in the assay with 786-0 renal is more than 100 µM; in the assay on COLO 205 colon, more than 100 µM; with HCT-15 colon, more than 100 µM; in the assay on HS 578T breast it was more than 73.8 µM; in the assay with HT29 colon, more than 100 µM; in the assay with K-562 leukemia, more than 100 µM. The TGI with M14 melanoma was more than 100 µM; in the assay with SK-OV-3 ovarian, more than 81.8 µM; with SN12C renal, more than 100 µM; in the assay with SNB-75 CNS it was 12.3 µM. Further, the GI50 was 6370 nM in the assay with COLO 205 colon, 2340 nM in the assay with HT29 colon and 2230 nM in the assay with M14 melanoma.
In the case of `CC[C@]12C=CCN3CC[C@]4(C(=C(C(=O)OC)C1)Nc1cc5c(cc14)[C@@H]1[C@H](O5)[C@@H](O)[C@@]4(CC)CC(C(=O)OC)=C5Nc6ccccc6[C@@]56CCN1[C@@H]46)[C@@H]32`, the GI50 is 252 nM and 383 nM in the assay with 786-0 renal; 69.5 nM with COLO 205 colon; 96.4 nM and 260 nM with HCT-15 colon; 344 nM and 218 nM in the assay on HS 578T breast; 130 nM and 186 nM with HT29 colon; 129 nM and 276 nM with K-562 leukemia. Moreover, the GI50 in the assay with M14 melanoma is 517 nM and 385 nM; with SK-OV-3 ovarian, 1090 nM; with SN12C renal, 464 nM and 499 nM; in the assay with SNB-75 CNS, 33.5 nM and 161 nM. For the same molecule, the TGI in the assay with 786-0 renal was 10 µM and 33.6 µM; in the assay on COLO 205 colon, 2.78 µM; in the assay on HCT-15 colon, 3.37 µM and 1.42 µM; in the assay on HS 578T breast, 25 µM and > 100 µM; in the assay with M14 melanoma it was 25 µM and > 100 µM; in the assay on SK-OV-3 ovarian, 25 µM. The TGI with SN12C renal is 25 µM and 33.5 µM; in the assay with SNB-75 CNS, 25 µM and 18.7 µM.
As to `CCOC(=O)c1c(C)n([O-])c2cc(F)c(F)cc2[n+]1=O`, the GI50 with 786-0 renal is 6730 nM; with COLO 205 colon it was 1940 nM; in the assay with HCT-15 colon, 455 nM; with HS 578T breast, 1730 nM; in the assay on HT29 colon, 516 nM; with K-562 leukemia, 697 nM. In addition, the GI50 was 1090 nM in the assay with M14 melanoma, 1930 nM in the assay with SK-OV-3 ovarian, 1010 nM in the assay with SN12C renal and 1910 nM with SNB-75 CNS. The TGI was 19.8 µM in the assay on 786-0 renal; 4.54 µM in the assay on COLO 205 colon; 2.04 µM in the assay with HCT-15 colon; 5.06 µM in the assay with HS 578T breast; 3.19 µM in the assay with HT29 colon; more than 20.4 µM in the assay on K-562 leukemia. Further, the TGI with M14 melanoma turned out to be 2.58 µM; in the assay with SK-OV-3 ovarian, 3.48 µM; in the assay on SN12C renal, 2.18 µM; with SNB-75 CNS it was 3.54 µM.
